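All cell lines were grown in 96-well plates and treated with compound for 48 hours. Definition used: TGI = concentration required for complete inhibition of growth.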
Legend:
Assay in all cases: NCI tumour cell line growth inhibition, 48 h
786-0 renal = test system: 786-0 renal
LXFL 529 NSCLC = test system: LXFL 529 NSCLC
HOP-18 NSCLC = test system: HOP-18 NSCLC
P388 leukemia = test system: P388 leukemia
P388/ADR leukemia = test system: P388/ADR leukemia
SN12K1 renal = test system: SN12K1 renal
XF 498 CNS = test system: XF 498 CNS
RXF-631 renal = test system: RXF-631 renal

SMILES: O=C([O-])C1([n+]2c(-c3ccccc3)cc(-c3ccccc3)cc2-c2ccccc2)CC1
- TGI (786-0 renal): > 100 µM

SMILES: CC(N)=O.[Cl][Pt][Cl].[NH-]c1ccn(C2OC(CO)C(O)C2O)c(=O)n1 (centres undefined)
- TGI (786-0 renal): > 100 µM

SMILES: O=S(=O)(c1ccc2ccccc2c1)N1CCN(S(=O)(=O)c2ccc3ccccc3c2)CC1
- TGI (786-0 renal): > 100 µM

SMILES: Clc1cccc(C2SCc3nc4ccccc4n32)c1 (centres undefined)
- TGI (LXFL 529 NSCLC): > 100 µM
- TGI (HOP-18 NSCLC): 47.5 µM

SMILES: Clc1ccc(-c2nnc(-c3nsc4ccccc34)o2)cc1
- TGI (LXFL 529 NSCLC): > 100 µM

SMILES: N/C(=N\N=C/c1cc([N+](=O)[O-])cc([N+](=O)[O-])c1O)NO
- TGI (P388 leukemia): 21.9 µM
- TGI (P388/ADR leukemia): > 100 µM
- TGI (SN12K1 renal): 4.92 µM
- TGI (XF 498 CNS): 98.1 µM
- TGI (HOP-18 NSCLC): > 100 µM

SMILES: CCN1C(=O)N2C(OC)c3ccccc3C(Br)C2(OC)C1=O (centres undefined)
- TGI (RXF-631 renal): > 100 µM
- TGI (LXFL 529 NSCLC): > 100 µM

SMILES: N=C(N)c1ccc(N=Nc2c(O)ccc3cc(O)ccc23)cc1
- TGI (786-0 renal): > 100 µM

SMILES: O=C(/C=C\c1ccc(/C=C/C(=O)Nc2cccc(C3=NCCCN3)c2)cc1)Nc1cccc(C2=NCCCN2)c1
- TGI (P388 leukemia): > 100 µM
- TGI (P388/ADR leukemia): > 100 µM
- TGI (SN12K1 renal): > 100 µM
- TGI (HOP-18 NSCLC): > 100 µM

SMILES: CC1=NN(C(=O)c2ccc(C)cc2)C(=O)C1N=Nc1ccccc1C(=O)O (centres undefined)
- TGI (P388 leukemia): > 51.5 µM
- TGI (P388/ADR leukemia): > 100 µM
- TGI (SN12K1 renal): > 100 µM
- TGI (XF 498 CNS): > 100 µM
- TGI (HOP-18 NSCLC): > 100 µM

SMILES: CC1CCN(c2cc(-c3cc4ccccc4o3)oc(=O)c2C#N)CC1
- TGI (LXFL 529 NSCLC): > 100 µM
- TGI (XF 498 CNS): > 100 µM
- TGI (HOP-18 NSCLC): > 100 µM

SMILES: CCOC(=O)[C@H]1Nc2c(cccc2[N+](=O)[O-])C2c3ccccc3CC21 (some centres undefined)
- TGI (RXF-631 renal): > 100 µM
- TGI (LXFL 529 NSCLC): > 100 µM
- TGI (XF 498 CNS): > 100 µM
